Experiments:
FGFR3 = target: T1, FGFR3 (Homo sapiens, UniProt P22607); test: Kinase binding assay (Kd), kinase-tagged T7 phage, affinity beads, qPCR; conditions: in vitro binding assay, 11-point 3-fold dilution series
T1 construct: made in house; host or cells: E. coli (BL21-derived) infected with T7 phage
Procedure: (§1) Kinase-tagged T7 phage strains were prepared in an E. coli host derived from the BL21 strain. E. coli were grown to log-phase and infected with T7 phage and incubated with shaking at 32° C. until lysis. The lysates were centrifuged and filtered to remove cell debris. Streptavidin-coated magnetic beads were treated with biotinylated small molecule ligands for 30 minutes at room temperature to generate affinity resins for kinase assays. The liganded beads were blocked with excess biotin and washed with blocking buffer SeaBlock (Pierce), 1% BSA, 0.05% Tween 20, 1 mM DTT to remove unbound ligand and to reduce non-specific binding. Binding reactions were assembled by combining kinases, liganded affinity beads, and test compounds in 1× binding buffer (20% SeaBlock, 0.17×PBS, 0.05% Tween 20, 6 mM DTT).
(§2) Test compounds were prepared as 111× stocks in 100% DMSO. Kds were determined using an 11-point 3-fold compound dilution series with three DMSO control points. All compounds for Kd measurements are distributed by acoustic transfer (non-contact dispensing) in 100% DMSO. The compounds were then diluted directly into the assays such that the final concentration of DMSO was 0.9%. All reactions performed in polypropylene 384-well plate. Each was a final volume of 0.02 ml. The assay plates were incubated at room temperature with shaking for 1 hour and the affinity beads were washed with wash buffer (1×PBS, 0.05% Tween 20). The beads were then re-suspended in elution buffer (1×PBS, 0.05% Tween 20, 0.5 μM non-biotinylated affinity ligand) and incubated at room temperature with shaking for 30 minutes. The kinase concentration in the eluates was measured by qPCR.
(§3) Binding constants were calculated with a standard dose-response curve using the Hill equation: […]
(§4) The Hill Slope was set to −1. Curves were fitted using a non-linear least square fit with the Levenberg-Marquardt algorithm.

FGFR1 = target: T2, FGFR1 (Homo sapiens, UniProt P11362); test: as above; conditions: in vitro binding assay, 11-point 3-fold dilution series
T2 construct: made in house; host or cells: E. coli (BL21-derived) infected with T7 phage
T2 sequence (P11362 22-822): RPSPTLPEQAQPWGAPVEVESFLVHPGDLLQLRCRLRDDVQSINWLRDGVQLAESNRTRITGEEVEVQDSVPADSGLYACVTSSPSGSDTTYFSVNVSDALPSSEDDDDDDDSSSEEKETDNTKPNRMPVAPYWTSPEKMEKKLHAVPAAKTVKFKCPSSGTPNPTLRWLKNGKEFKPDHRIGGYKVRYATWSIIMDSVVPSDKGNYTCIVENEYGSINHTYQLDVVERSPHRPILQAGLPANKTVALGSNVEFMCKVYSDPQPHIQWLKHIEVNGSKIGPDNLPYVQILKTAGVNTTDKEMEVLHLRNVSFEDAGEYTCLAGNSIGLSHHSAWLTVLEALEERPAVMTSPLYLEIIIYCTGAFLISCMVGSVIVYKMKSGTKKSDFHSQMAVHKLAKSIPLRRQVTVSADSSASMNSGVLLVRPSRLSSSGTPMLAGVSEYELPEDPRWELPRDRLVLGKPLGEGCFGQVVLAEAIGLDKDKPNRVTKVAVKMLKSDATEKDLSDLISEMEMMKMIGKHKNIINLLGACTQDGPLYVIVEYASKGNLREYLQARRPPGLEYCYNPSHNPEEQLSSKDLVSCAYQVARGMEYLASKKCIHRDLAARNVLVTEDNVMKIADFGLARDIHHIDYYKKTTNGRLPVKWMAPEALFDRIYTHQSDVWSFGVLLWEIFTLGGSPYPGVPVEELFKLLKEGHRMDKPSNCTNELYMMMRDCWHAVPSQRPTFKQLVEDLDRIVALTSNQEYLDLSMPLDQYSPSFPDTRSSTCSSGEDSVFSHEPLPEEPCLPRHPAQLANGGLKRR
Procedure: as §1, §2, §3, §4

Ba/F3 ETV5-FGFR4 = target: T3, Ba/F3 ETV5-FGFR4 (Homo sapiens, UniProt P22455); test: Ba/F3 cell viability assay (CellTiter-Glo 2.0); format: cell-based; conditions: Ba/F3 cell data, ETV5-FGFR4 fusion, 48 hours
T3 construct: host or cells: Ba/F3; the other entry of the earlier key: ETV5 (P41161, ETS translocation variant 5)
T3 sequence (P22455 467-755 limits assumed): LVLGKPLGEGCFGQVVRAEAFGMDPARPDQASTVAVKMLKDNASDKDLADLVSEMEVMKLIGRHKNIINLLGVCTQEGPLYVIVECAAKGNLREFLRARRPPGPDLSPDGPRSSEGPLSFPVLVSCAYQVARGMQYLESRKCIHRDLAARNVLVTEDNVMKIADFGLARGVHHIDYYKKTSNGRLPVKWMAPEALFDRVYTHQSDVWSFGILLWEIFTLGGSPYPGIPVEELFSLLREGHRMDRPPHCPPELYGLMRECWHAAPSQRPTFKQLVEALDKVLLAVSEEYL
Excerpt: Experimental Purpose: Recombinant kinase fusions are transduced into parental Ba/F3, which becomes dependent upon this constitutive kinase activity for IL3-independent survival. Inhibition of kinase activity leads to cell death, which is monitored using CellTiter-Glo® 2.0 (Promega) which measures intracellular ATP concentration that in turn serves as a marker for viability. BCR-FGFR1 Ba/F3, BCR-FGFR2 and FGFR3-BAIAP2L1 Ba/F3 were obtained from Advanced Cellular Dynamics (Seattle, WA). ETV6-FGFR4 was obtained from Kyinno (Waltham, MA).
Cell Viability Assay Procedure: Cell Titer-Glo® 2.0 Luminescent cell viability assay reagent was purchased from Promega (Madison, WI). Ba/F3 cell lines were cultured in RPMI1640 media supplemented with 10% fetal bovine serum. Cultures were maintained at 37° C. in a humidified atmosphere of 5% CO2 and 95% air.
Cells were plated in 96-well clear bottom/white plates (Corning #3903) at 10,000 cells/well in 100 μl of media, incubated overnight. The next day, test compound DMSO stock solutions were made at 10 mM and 2 μM final concentration. Compounds were then added to cells in a 9-dose, 10-fold dilution series starting at 30 μM with an HP 300e Digital Dispenser (each dose was applied in triplicate). DMSO was backfilled to each well up to 301 nL total volume of test compound+DMSO, and a total of 301 nL DMSO was added to a control/no test compound well in triplicate. The cells in cell culture plates were incubated with the compounds at 37° C. and 5% CO2 for 48 hours. Then 50 μl of Cell Titer Glo 2.0 reagent was added to each well of the cell culture plates. The contents were covered from light and mixed on an orbital shaker at room temperature for 10 min. Luminescence was recorded by a Synergy H1 Microplate Reader (Biotek, Winooski, VT). Cells were assessed as a percentage of DMSO only treated control cells. Curves were plotted and IC50 values were calculated using the GraphPad Prism 8 program based on a sigmoidal dose-response equation (4 parameter).

Ba/F3 BCR-FGFR1 = target: T4, Ba/F3 BCR-FGFR1 (Homo sapiens, UniProt P11362); test: Ba/F3 cell viability assay (CellTiter-Glo 2.0); format: cell-based; conditions: Ba/F3 cell data, BCR-FGFR1 fusion, 48 hours
T4 construct: BCR (fusion partner); host or cells: Ba/F3; the other entry of the earlier key: BCR (P11274, Breakpoint cluster region protein)
T4 sequence (P11362 478-767 limits assumed): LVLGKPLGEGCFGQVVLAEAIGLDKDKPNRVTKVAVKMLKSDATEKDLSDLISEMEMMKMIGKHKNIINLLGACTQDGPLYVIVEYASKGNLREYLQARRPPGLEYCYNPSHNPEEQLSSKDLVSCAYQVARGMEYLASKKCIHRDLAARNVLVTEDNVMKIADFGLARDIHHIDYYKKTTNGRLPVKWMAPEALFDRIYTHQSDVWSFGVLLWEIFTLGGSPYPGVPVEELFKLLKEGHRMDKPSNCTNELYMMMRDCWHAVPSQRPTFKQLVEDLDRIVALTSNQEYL

Ba/F3 BCR-FGFR2 = target: T5, Ba/F3 BCR-FGFR2 (Homo sapiens, UniProt P21802); test: Ba/F3 cell viability assay (CellTiter-Glo 2.0); format: cell-based; conditions: Ba/F3 cell data, BCR-FGFR2 fusion, 48 hours
T5 construct: BCR (fusion partner); host or cells: Ba/F3; the other entry of the earlier key: BCR (P11274, Breakpoint cluster region protein)
T5 sequence (P21802 481-770 limits assumed): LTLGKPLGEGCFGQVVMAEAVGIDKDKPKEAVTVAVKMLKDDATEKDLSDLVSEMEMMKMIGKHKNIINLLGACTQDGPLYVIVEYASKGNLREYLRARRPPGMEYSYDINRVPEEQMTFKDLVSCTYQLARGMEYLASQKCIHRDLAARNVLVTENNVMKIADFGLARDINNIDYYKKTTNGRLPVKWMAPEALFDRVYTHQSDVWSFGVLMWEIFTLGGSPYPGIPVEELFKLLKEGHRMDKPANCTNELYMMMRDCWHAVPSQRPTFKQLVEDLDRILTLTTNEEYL

Ba/F3 FGFR3-BAIAP2L1 = target: T6, Ba/F3 FGFR3-BAIAP2L1 (Homo sapiens, UniProt P22607); test: Ba/F3 cell viability assay (CellTiter-Glo 2.0); format: cell-based; conditions: Ba/F3 cell data, FGFR3-BAIAP2L1 fusion, 48 hours
T6 construct: BAIAP2L1 (fusion partner, Q9UHR4 if human); host or cells: Ba/F3; the other entry of the earlier key: BAIAP2L1 (Q9UHR4, BAR/IMD domain-containing adapter protein 2-like 1)
T6 sequence (P22607 397-758 limits assumed): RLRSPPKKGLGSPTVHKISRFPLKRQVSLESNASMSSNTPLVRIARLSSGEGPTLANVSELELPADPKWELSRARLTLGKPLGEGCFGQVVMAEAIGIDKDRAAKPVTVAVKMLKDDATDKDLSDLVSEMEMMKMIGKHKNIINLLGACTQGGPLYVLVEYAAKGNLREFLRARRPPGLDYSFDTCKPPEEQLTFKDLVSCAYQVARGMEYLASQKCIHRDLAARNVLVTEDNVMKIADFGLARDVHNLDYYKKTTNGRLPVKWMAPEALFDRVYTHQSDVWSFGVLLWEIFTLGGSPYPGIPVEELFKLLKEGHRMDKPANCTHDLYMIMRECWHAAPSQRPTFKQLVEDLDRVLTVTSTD

FGFR4 = target: T7, FGFR4 (Homo sapiens, UniProt P22455); test: Kinase binding assay (Kd), kinase-tagged T7 phage, affinity beads, qPCR; conditions: in vitro binding assay, 11-point 3-fold dilution series
T7 construct: made in house; host or cells: E. coli (BL21-derived) infected with T7 phage
T7 sequence (P22455 22-802): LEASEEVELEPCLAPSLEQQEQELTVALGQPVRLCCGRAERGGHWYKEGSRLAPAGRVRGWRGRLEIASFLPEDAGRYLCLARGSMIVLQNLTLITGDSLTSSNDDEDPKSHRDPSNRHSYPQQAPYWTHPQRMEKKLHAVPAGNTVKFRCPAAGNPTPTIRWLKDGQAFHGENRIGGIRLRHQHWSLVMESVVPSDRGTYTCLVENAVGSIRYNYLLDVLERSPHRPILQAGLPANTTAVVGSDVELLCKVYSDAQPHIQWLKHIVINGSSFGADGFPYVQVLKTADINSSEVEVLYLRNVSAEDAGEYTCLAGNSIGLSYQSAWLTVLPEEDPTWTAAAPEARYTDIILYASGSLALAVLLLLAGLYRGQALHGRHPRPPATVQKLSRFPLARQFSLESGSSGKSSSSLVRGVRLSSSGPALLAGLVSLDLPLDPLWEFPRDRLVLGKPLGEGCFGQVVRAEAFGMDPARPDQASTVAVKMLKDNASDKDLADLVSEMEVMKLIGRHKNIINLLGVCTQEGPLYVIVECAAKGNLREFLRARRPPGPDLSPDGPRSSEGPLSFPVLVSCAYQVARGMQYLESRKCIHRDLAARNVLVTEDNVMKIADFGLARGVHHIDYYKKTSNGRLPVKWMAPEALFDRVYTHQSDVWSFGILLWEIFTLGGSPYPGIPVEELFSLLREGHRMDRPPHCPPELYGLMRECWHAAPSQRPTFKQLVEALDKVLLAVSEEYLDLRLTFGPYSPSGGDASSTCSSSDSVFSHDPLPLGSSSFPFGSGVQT
Procedure: as §1, §2, §3, §4

FGFR3 (V555M) = target: T8, FGFR3 (V555M) (Homo sapiens, UniProt P22607, V555M); test: as above; conditions: in vitro binding assay, 11-point 3-fold dilution series
T8 construct: made in house; host or cells: E. coli (BL21-derived) infected with T7 phage
T8 sequence (P22607 23-806 V555M): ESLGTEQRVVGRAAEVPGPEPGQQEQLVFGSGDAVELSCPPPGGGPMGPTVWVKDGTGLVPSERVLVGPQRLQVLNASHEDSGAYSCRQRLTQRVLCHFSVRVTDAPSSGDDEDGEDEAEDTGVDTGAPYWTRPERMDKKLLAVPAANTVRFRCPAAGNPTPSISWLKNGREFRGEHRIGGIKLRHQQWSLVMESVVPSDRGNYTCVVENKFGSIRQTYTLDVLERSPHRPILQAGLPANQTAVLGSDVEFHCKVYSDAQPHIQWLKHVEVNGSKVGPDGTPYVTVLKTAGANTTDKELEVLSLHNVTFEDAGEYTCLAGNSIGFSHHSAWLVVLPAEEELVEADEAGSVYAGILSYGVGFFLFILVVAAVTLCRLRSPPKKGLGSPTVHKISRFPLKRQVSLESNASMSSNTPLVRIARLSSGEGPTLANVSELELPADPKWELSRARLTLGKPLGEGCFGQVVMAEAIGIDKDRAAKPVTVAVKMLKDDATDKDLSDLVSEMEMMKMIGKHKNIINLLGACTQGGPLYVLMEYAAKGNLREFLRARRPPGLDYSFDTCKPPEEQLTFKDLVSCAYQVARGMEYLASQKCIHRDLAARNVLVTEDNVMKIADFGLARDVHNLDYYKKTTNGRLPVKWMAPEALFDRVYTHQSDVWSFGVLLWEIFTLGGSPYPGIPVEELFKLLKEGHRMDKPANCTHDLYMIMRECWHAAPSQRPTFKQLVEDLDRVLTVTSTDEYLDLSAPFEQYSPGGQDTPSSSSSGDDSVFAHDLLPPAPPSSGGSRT
Procedure: as §1, §2, §3, §4

FGFR2 = target: T9, FGFR2 (Homo sapiens, UniProt P21802); test: as above; conditions: in vitro binding assay, 11-point 3-fold dilution series
T9 construct: made in house; host or cells: E. coli (BL21-derived) infected with T7 phage
T9 sequence (P21802 22-821): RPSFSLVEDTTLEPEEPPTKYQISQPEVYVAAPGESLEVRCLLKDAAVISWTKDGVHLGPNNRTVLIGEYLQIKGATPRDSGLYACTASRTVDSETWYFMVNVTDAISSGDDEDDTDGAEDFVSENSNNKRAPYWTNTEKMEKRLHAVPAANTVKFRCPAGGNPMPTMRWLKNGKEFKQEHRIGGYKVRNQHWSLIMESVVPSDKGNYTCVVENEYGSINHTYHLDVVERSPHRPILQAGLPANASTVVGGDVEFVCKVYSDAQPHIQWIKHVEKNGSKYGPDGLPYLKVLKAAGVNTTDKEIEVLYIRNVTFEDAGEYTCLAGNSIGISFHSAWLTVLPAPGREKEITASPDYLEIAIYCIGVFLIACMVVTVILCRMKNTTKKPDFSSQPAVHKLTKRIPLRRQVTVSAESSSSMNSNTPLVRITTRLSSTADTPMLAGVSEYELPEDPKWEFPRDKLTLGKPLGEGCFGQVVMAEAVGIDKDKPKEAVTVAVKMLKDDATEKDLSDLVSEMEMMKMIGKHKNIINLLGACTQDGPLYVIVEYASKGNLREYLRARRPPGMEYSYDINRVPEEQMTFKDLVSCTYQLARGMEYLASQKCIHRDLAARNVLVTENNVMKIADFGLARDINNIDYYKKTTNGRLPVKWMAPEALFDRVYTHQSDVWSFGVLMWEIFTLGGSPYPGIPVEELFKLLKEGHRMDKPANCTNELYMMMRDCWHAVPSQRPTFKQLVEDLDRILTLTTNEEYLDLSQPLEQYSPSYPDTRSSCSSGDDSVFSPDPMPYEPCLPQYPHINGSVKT
Procedure: as §1, §2, §3, §4

T1 sequence (P22607 23-806): as the sequence (P22607 23-806 V555M) above, with M533V counted along it

Kd (FGFR3)	Kd (FGFR1)	Kd (FGFR4)	Kd (FGFR3 (V555M))	Kd (FGFR2)	SMILES	Kd (Ba/F3 ETV5-FGFR4)	Kd (Ba/F3 BCR-FGFR1)	Kd (Ba/F3 BCR-FGFR2)	Kd (Ba/F3 FGFR3-BAIAP2L1)
0.1 to 100 nM	100 to 250 nM				C=CC(=O)N1CCC2(CC1)CC(n1ncc(-c3cc(OC(CO)c4ccccn4)c4c(Cl)cnn4c3)c1C)C2 (single isomer, unassigned) [Example 6]	250 to 1000 nM	250 to 1000 nM	250 to 1000 nM	0.1 to 100 nM
100 to 250 nM	≥ 1000 nM	≥ 1000 nM	250 to 1000 nM	250 to 1000 nM	C=CC(=O)N1CC(F)(C(=O)N2CCC(n3nnc(-c4cc(O[C@@H](CO)c5ccccn5)c5c(C#N)cnn5c4)c3C)CC2)C1 (single isomer, unassigned) [Example 19]				
0.1 to 100 nM	0.1 to 100 nM				C=CC(=O)N1CCC2(CC1)CC(n1nnc(-c3cc(O[C@H](C)c4ccccn4)c4c(Cl)cnn4c3)c1C)C2 [Example 4, (R)-1-(2-(4-(3-chloro-4-(1-(pyridin-2-yl)ethoxy)-pyrazolo[1,5-a]pyridin-6-yl)-5-methyl-1H-1,2,3-triazol-1-yl)-7-azaspiro[3.5]nonan-7-yl)prop-2-en-1-one]	250 to 1000 nM	100 to 250 nM	100 to 250 nM	0.1 to 100 nM
250 to 1000 nM	≥ 1000 nM				C=CC(=O)N1CCC2(CC1)CC(n1ncc(-c3cc(O[C@@H](CO)c4ccccn4)c4c(Cl)cnn4c3)c1C)C2 [Example 5, (R)-1-(2-(4-(3-chloro-4-(2-hydroxy-1-(pyridin-2-yl)ethoxy)pyrazolo[1,5-a]pyridin-6-yl)-5-methyl-1H-pyrazol-1-yl)-7-azaspiro[3.5]nonan-7-yl)prop-2-en-1-one]	≥ 1000 nM	≥ 1000 nM	≥ 1000 nM	250 to 1000 nM
100 to 250 nM	250 to 1000 nM	250 to 1000 nM	250 to 1000 nM	100 to 250 nM	C=CC(=O)N1CCC2(CC1)CC(n1ncc(-c3cc(O[C@@H](CO)c4ccccn4)c4c(C#N)cnn4c3)c1C)C2 [Example 7, (R)-6-(1-(7-acryloyl-7-azaspiro[3.5]nonan-2-yl)-5-methyl-1H-pyrazol-4-yl)-4-(2-hydroxy-1-(pyridin-2-yl)ethoxy)pyrazolo[1,5-a]pyridine-3-carbonitrile]	250 to 1000 nM	≥ 1000 nM	250 to 1000 nM	100 to 250 nM
250 to 1000 nM	250 to 1000 nM		250 to 1000 nM	250 to 1000 nM	C=CC(=O)N1CCC2(CC1)CC(n1ncc(-c3cc(O[C@@H](CO)c4ccc(F)cn4)c4c(C#N)cnn4c3)c1C)C2 [Example 10, (R)-6-(1-(7-acryloyl-7-azaspiro[3.5]nonan-2-yl)-5-methyl-1H-pyrazol-4-yl)-4-(1-(5-fluoropyridin-2-yl)-2-hydroxyethoxy)pyrazolo[1,5-a]pyridine-3-carbonitrile]	≥ 1000 nM	≥ 1000 nM	≥ 1000 nM	250 to 1000 nM
100 to 250 nM	250 to 1000 nM	250 to 1000 nM	100 to 250 nM	100 to 250 nM	C=CC(=O)N1CCC2(CC1)CC(n1ncc(-c3cc(OC(CO)c4ccnn4C)c4c(C#N)cnn4c3)c1C)C2 (centres unmarked) [Example 11, 6-(1-(7-acryloyl-7-azaspiro[3.5]nonan-2-yl)-5-methyl-1H-pyrazol-4-yl)-4-(2-hydroxy-1-(1-methyl-1H-pyrazol-5-yl)ethoxy)pyrazolo[1,5-a]pyridine-3-carbonitrile]	≥ 1000 nM	≥ 1000 nM	≥ 1000 nM	250 to 1000 nM
0.1 to 100 nM	100 to 250 nM	0.1 to 100 nM	0.1 to 100 nM	0.1 to 100 nM	CCC(=O)N1CC(C(=O)N2CCC(n3nnc(-c4cc(OC(CO)c5ccccn5)c5c(C#N)cnn5c4)c3C)CC2)C1 (centres unmarked) [Example 16, 4-(2-hydroxy-1-(pyridin-2-yl)ethoxy)-6-(5-methyl-1-(1-(1-propionylazetidine-3-carbonyl)piperidin-4-yl)-1H-1,2,3-triazol-4-yl)pyrazolo[1,5-a]pyridine-3-carbonitrile]				
100 to 250 nM	≥ 1000 nM	≥ 1000 nM	250 to 1000 nM	250 to 1000 nM	C=CC(=O)N1CC(C(=O)N2CCC(n3nnc(-c4cc(O[C@@H](CO)c5ccccn5)c5c(C#N)cnn5c4)c3C)CC2)C1 [Example 17, (R)-6-(1-(1-(1-acryloylazetidine-3-carbonyl)piperidin-4-yl)-5-methyl-1H-1,2,3-triazol-4-yl)-4-(2-hydroxy-1-(pyridin-2-yl)ethoxy)pyrazolo[1,5-a]pyridine-3-carbonitrile]				
0.1 to 100 nM	0.1 to 100 nM	0.1 to 100 nM	0.1 to 100 nM	0.1 to 100 nM	C#CC(=O)N1CC(OC)(C(=O)N2CCC(n3nnc(-c4cc(OC(CO)c5ccccn5)c5c(C#N)cnn5c4)c3C)CC2)C1 (centres unmarked) [Example 24, 4-(2-hydroxy-1-(pyridin-2-yl)ethoxy)-6-(1-(1-(3-methoxy-1-propioloylazetidine-3-carbonyl)piperidin-4-yl)-5-methyl-1H-1,2,3-triazol-4-yl)pyrazolo[1,5-a]pyridine-3-carbonitrile]				
100 to 250 nM	100 to 250 nM	250 to 1000 nM	250 to 1000 nM	100 to 250 nM	C=CC(=O)N1CCC2(CC1)CC(n1cc(-c3cc(O[C@@H](CO)c4ccc(F)cn4)c4c(C#N)cnn4c3)cn1)C2 [Example 25, (R)-6-(1-(7-acryloyl-7-azaspiro[3.5]nonan-2-yl)-1H-pyrazol-4-yl)-4-(1-(5-fluoropyridin-2-yl)-2-hydroxyethoxy)pyrazolo[1,5-a]pyridine-3-carbonitrile]				
100 to 250 nM	100 to 250 nM	250 to 1000 nM	250 to 1000 nM	100 to 250 nM	CCC(=O)N1CCC2(CC1)CC(n1cc(-c3cc(O[C@@H](CO)c4ccc(F)cn4)c4c(C#N)cnn4c3)cn1)C2 [Example 26, (R)-4-(1-(5-fluoropyridin-2-yl)-2-hydroxyethoxy)-6-(1-(7-propionyl-7-azaspiro[3.5]nonan-2-yl)-1H-pyrazol-4-yl)pyrazolo[1,5-a]pyridine-3-carbonitrile]				

Source: patent publication US20260209223A1, “FGFR3 INHIBITOR COMPOUNDS” (TYRA BIOSCIENCES, INC., priority 2022, published 2026)
